Patent publication US8609719B2, “Propargylated aminoindans, processes for preparation, and uses thereof” (priority 2006, dated 2013)
Where a name gives a salt, the structure may show the parent alone. Read-outs that look alike come from different tables or passages of the source.

Target: T1, MAO-B (Rattus norvegicus, UniProt P19643)
T1 construct: from tissue; host or cells: brain, liver and intestine (duodenum) of dosed rats
T1 sequence (P19643 1-520): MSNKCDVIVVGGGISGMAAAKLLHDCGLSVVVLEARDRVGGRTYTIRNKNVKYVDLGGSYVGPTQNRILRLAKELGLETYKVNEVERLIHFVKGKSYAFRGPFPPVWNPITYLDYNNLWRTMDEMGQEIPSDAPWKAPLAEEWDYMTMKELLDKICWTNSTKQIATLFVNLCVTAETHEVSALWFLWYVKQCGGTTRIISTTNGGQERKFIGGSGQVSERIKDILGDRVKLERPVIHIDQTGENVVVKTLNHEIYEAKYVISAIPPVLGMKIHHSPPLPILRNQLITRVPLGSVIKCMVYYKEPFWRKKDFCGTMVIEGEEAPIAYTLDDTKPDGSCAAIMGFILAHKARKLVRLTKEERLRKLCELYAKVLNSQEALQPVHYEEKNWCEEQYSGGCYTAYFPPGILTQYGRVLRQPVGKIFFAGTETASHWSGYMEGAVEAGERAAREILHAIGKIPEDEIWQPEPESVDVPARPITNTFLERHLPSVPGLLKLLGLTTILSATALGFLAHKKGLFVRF
Experiment: MAO-B inhibition in rat organs after chronic P.O. administration
Type: in vivo
Details: po, 7 days, 2 hours after last dose; for inhibition at 37.5 µmol/kg: 37.5 μmol/kg P.O. daily; for inhibition at 75 µmol/kg: 75 μmol/kg P.O. daily; for inhibition at 150 µmol/kg: 150 μmol/kg P.O. daily
Protocol: 30 rats were separated randomly into 5 testing groups of 6 rats each. Group 1 was the control group to which no drug was administered. Ethyl-hydroxymethyl-carbamic acid 3-R-(prop-2-ynylamino)-indan-5-yl ester fumarate (2:1) was administered to groups 2, 3, 4 in dosages of 150, 75, and 37.5 μmol/kg respectively, daily, perorally (“P.O.”) for seven consecutive days. Water was used as a vehicle.
Rats were sacrificed, out of sight of the other rats, 2 hours after the last administration. Brains were removed into Petri dishes on ice, the cerebellums were […], and the brains cut into halves for analysis. Livers and intestines were removed for MAO determination. Organs were homogenated for enzyme inhibition analysis.
The MAO inhibition after administration of ethyl-hydroxymethyl-carbamic acid 3-R-(prop-2-ynylamino)-indan-5-yl ester fumarate (2:1) in various organs is listed in Table 4 calculated in percent relative to the control group.

[1] = read-out: Brain MAO-B inhibition relative to control
[2] = read-out: Duodenum MAO-B inhibition relative to control
[3] = read-out: Liver MAO-B inhibition relative to control

C#CCN[C@@H]1CCc2ccc(OC(=O)N(CC)CO)cc21 [R-HCPAI, Ethyl-hydroxymethyl-carbamic acid 3-R-(prop-2-ynylamino)-indan-5-yl ester fumarate (2:1)]
inhibition at 37.5 µmol/kg [1]: 17% | inhibition at 37.5 µmol/kg [2]: 7% | inhibition at 37.5 µmol/kg [3]: 15% | inhibition at 75 µmol/kg [1]: 62% | inhibition at 75 µmol/kg [2]: 31% | inhibition at 75 µmol/kg [3]: 18% | inhibition at 150 µmol/kg [1]: 83% | inhibition at 150 µmol/kg [2]: 35% | inhibition at 150 µmol/kg [3]: 34%
